What was measured:
[1] = tested on: normal rat intestinal epithelial cells; assay: Toxic effects of etoposide on normal intestinal epithelial cells; type: cell-based
Excerpt: (§1) LY-ar was highly resistant to apoptosis induced by y-radiation. […] The apparent selective effects of W-188 may be due to the preferential intracellular accumulation of porphyrin compounds in transformed cells as opposed to normal cells reported previously (Bugelski, P. J., et al., Cancer Res., 1981, 41:4606).

HL-60-Bcl-2 cells = assay: 10 day colony formation assay, HL-60-Bcl-2; type: cell-based, human; conditions: not shown
Excerpt: as §1

caspase 3 = assay: Caspase 3 activity (DEVDase); type: cell-based
Excerpt: (§2) However, more recent findings indicate that W-188 may also downregulate expression of endogenous Bcl-2 in cells that naturally have high levels of this protein.

HL-60 neo cells = assay: DNA fragmentation (release of 3H-labeled DNA fragments) in vector control HL-60 neo cells; type: cell-based, human; conditions: neo cell lines (HL-60 neo, PW neo); compound added to inducers
Procedure: The present study evaluated the ability of W-188 to sensitize Bcl-2-overexpressing cells to induce apoptosis. The human myelogenous leukemia, HL-60, and the human B cell leukemia, PW, normally express very low levels of Bcl-2. As a model system, W-188 and various analogs and derivatives were tested in normal HL-60 and PW cells and in Bcl-2-transfected HL-60 and PW cells that overexpress high levels of Bcl-2 (see Gilbert et al., J. Cell Physiol., 1996, 171:299).
As depicted in FIG. 4, HL-60 cells (Panel A) and PW cells (Panel B) cells were exposed to various apoptosis inducers: TNF at 5 ng/ml; etoposide at 20 μM; and UV at 0.08 J/cm^2. The release of 3H-labeled DNA fragments was measured after 5 h. Normal HL-60 and PW cells were equally sensitive to apoptosis inducers as compared with cells that were transfected with vector encoding neomycin resistance (HL-60 neo and PW neo) only. […] W-188 alone was nontoxic. The addition of W-188 to the neo cell lines caused a 1.5-2 fold increase in DNA fragmentation in response to the various apoptosis inducers.

P3X63Ag8.653 (P3X) cells = assay: Drug-induced DNA fragmentation in Bcl-XL-overexpressing myeloma cells; type: cell-based, murine; conditions: W-188 0.1 μg/mL; etoposide, chlorambucil, YW-200; 24 h; FIG. 5
Procedure: It has been reported that the murine myeloma, SP2/0, is highly sensitive to cycloheximide-induced apoptosis, whereas the related murine myeloma, P3X63Ag8.653 (P3X), was resistant (Gauthier, E. R., et al., Cancer Res., 1996, 56:1451). This resistance was attributed to natural high levels of expression of Bcl-XL in the absence of any detectable Bcl-2. In contrast, SP2 expressed neither Bcl-2 or Bcl-XL. Thus, normal (SP2) or Bcl-XL-overexpressing cells (P3X) were treated with chemotherapeutic drugs ±0.1 μg/ml W-188. After 24 h, % DNA fragmentation was measured by release of ^3H-labeled DNA fragments.
P3X was relatively resistant to DNA fragmentation induced by three chemotherapeutic drugs, etoposide, chlorambucil, and YW-200, relative to SP2 (FIG. 5). YW-200 is an experimental DNA-binding chemotherapeutic drug related to CC-1065 (Wang, Y., et al., U.S. Pat. No. 5,843,937, 1998).

bFGF-treated U937 cells = assay: DNA fragmentation in bFGF-treated U937 cells; type: cell-based; conditions: 1 ng/ml bFGF 20 h pretreatment; FIG. 9
Procedure: Another means by which cells may evade apoptosis is by treatment with various growth factors. To assess the ability of W-188 to reverse the apoptosis resistance induced by growth factors, U937 cells were treated ±1 ng/ml basic fibroblast growth factor (bFGF) for 20 h, then exposed to etoposide or TNF and DNA fragmentation measured.

[2] = tested on: Normal human venous endothelial cells; assay: Cytotoxicity to normal venous endothelial cells (MTT dye reduction assay); type: cell-based
[3] = as above; type: cell-based, human; conditions: human, normal venous endothelial cells, 6 h
AP24 = assay: Etoposide-induced activation of AP24 (AAPVase) in HL-60 and PW leukemia lines; type: cell-based, human; conditions: for AP24 Activity (AAPVase, nmol/mg/hr): etoposide 50 μM + W-188 5 μg/ml, 3 h
GSH = assay: Intracellular GSH levels; type: cell-based
Excerpt: as §2

Ramos B lymphoma cells = assay: Dox cytotoxicity by trypan blue exclusion in Ramos cells; type: cell-based; conditions: 24 hr
Procedure: In the present study, the sensitizing activity of W-188 and W-143 was tested in the Raji and Ramos cell lines. Since these two human B lymphoma lines naturally express high levels of anti-apoptotic Bcl-2 proteins, they may be more clinically relevant than the transfected HL-60-Bcl-2 line.
The sensitizing effects of W-143 and W-188 were first tested on these lines in vitro. […] Ramos cells were cultured with different concentrations of Dox with and without W-143 or W-188 at 20 μg/ml for 24 hr, and then viability assessed microscopically by counting at least 100 cells.

LY-ar cells = assay: Radiation-induced DNA fragmentation in LY-ar cells; type: cell-based, murine; conditions: γ-radiation in the presence of W-188; FIG. 10
Procedure: Additional studies were performed to determine if W-188 could also sensitize cells that naturally express high levels of Bcl-2. Clones were isolated from the murine B cell lymphoma, LY, that naturally express low levels of Bcl-2 (LY-as) or high levels (LY-ar), as described previously (Mirkovic, N., et al., Oncogene, 1997, 15:1461).
as §1

Bcl-2 = assay: Expression of Bcl-2 protein in HL-60-Bcl-2 cells; type: cell-based, human; conditions: W-188 + etoposide / chemotherapeutic drugs, in vitro
[4] = Body weight of RIF-1 tumor bearing mice
Excerpt: Groups of five mice each were inoculated s.c. with RIF-1 cells. The tumors were allowed to grow for 12 days to a size of 0.5 cm diameter, which was designated day 0. […] The mice were weighed and the tumor size measured every day.

[5] = W-188 + etoposide, HL-60-Bcl-2 and LY-ar cells

## CCC1=C(C)C(/C=C2\NC(=O)C(C)=C2CC)=NC/1=C\c1[nH]c(/C=C2\NC(=O)C(C)=C2CC)c(C)c1CC [W-188, etiobiliverdin-IV]
[1]
  Effect on toxic effects of etoposide on normal cells: did not increase the toxic effects of etoposide
HL-60-Bcl-2 cells
  Sensitization to cell death mediated by etoposide and chlorambucil: sensitized HL-60-Bcl-2 and LY-ar cells to cell death mediated by etoposide and chlorambucil
Caspase 3; [5]
  Caspase 3 activity (DEVDase): activation of caspase 3
Caspase 3; W-188 alone
  Caspase 3 activity (DEVDase): did not affect intracellular levels of GSH or caspase 3 activity
HL-60 neo cells
  Increase in DNA fragmentation in response to apoptosis inducers: 1.5-2 fold
P3X63Ag8.653 (P3X) cells
  Sensitization to drug-induced DNA fragmentation: sensitized P3X to undergo drug-induced DNA fragmentation at levels close to or equal to those of SP2
bFGF-treated U937 cells
  Reversal of bFGF-induced resistance to etoposide or TNF-induced DNA fragmentation: completely reversed resistance to apoptosis
[2]
  Effect on toxic effects of etoposide on normal cells: did not increase the toxic effects of etoposide
[2]; W-188 at concentrations as high as 50 μg/mL
  Augmentation of killing of endothelial cells by etoposide or YW-200: did not augment the killing of endothelial cells by etoposide or YW-200
[3]; W-188 25 μg/mL, etoposide 0 μM
  cytotoxicity at 6 h, 25 μg/mL: 7 ± 1.5%
[3]; W-188 50 μg/mL, etoposide 0 μM
  cytotoxicity at 6 h, 50 μg/mL: 22 ± 2%
[3]; YW-200 0.01 μM + W-188 25 μg/mL
  cytotoxicity at 6 h, 25 μg/mL: 38 ± 4.9%
[3]; YW-200 0.01 μM + W-188 50 μg/mL
  cytotoxicity at 6 h, 50 μg/mL: 59 ± 2.2%
[3]; etoposide 100 μM + W-188 25 μg/mL
  cytotoxicity at 6 h, 25 μg/mL: 11 ± 1.5%
[3]; etoposide 100 μM + W-188 50 μg/mL
  cytotoxicity at 6 h, 50 μg/mL: 21 ± 1.6%
AP24; HL-60-Bcl-2 and PW-Bcl-2 exposed to apoptosis inducers
  Activation of AP24 (in words): did not activate AP24 unless they were also treated with W-188
AP24; HL-60 Bcl-2
  AP24 Activity (AAPVase, nmol/mg/hr): 124 nmol/mg/h
AP24; PW Bcl-2
  AP24 Activity (AAPVase, nmol/mg/hr): 129 nmol/mg/h
GSH; [5]
  Intracellular levels of GSH: caused depletion of GSH
GSH; W-188 alone
  Intracellular levels of GSH: did not affect intracellular levels of GSH or caspase 3 activity
Ramos B lymphoma cells; 20 μg/ml, no Dox
  Toxicity of compound alone: completely nontoxic
Ramos B lymphoma cells; compound 20 μg/ml + Dox, FIG. 6
  Increase of cytotoxicity mediated by Dox: over two fold
LY-ar cells
  Radiation-induced DNA fragmentation: underwent DNA fragmentation at levels equal to or exceeding that of LY-as treated with radiation
Bcl-2
  Expression of Bcl-2 protein: did not downregulate the expression of Bcl-2 protein
[4]; W-188 + Dox 5 mg/kg, FIG. 12
  Body weight: did lose weight, but not much more than those mice treated with Dox 5 mg/kg alone
[4]; W-188 alone, data not shown
  Body weight: did not show any decrease in weight

Reference: US20030207933A1, “Compositions and methods for increasing the sensitivity of apoptosis-resistant tumor cells to inducers of apoptosis” (priority 2002, published 2003)
